{
  "source": "patent US11412737B2",
  "about": "“Mixtures of beflubutamid or optically enriched forms thereof with a second herbicide” (FMC Corporation, priority 2016, dated 2022)",
  "key": {"[1]": {"tested_on": "Common lambsquarters (CHEAL)", "assay": "pre-emergence test, weed control", "format": "in vivo, Chenopodium album", "conditions": "pre-emergent, 28 DAT; BFL at 125 g/ha, DCI at 125 g/ha, combination of both", "method_in_brief": "(§1)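 Seeds sown in top-soil flats and watered, then sprayed pre-emergence at 30 gallons per acre from a nozzle 10.5 inches above soil; flats kept in the greenhouse with regular watering and fertilizing. Percent control (0–100 scale versus untreated flats) scored at 21 DAT for wheat and 28 DAT for all species, averaged over replicates.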"}, "[2]": {"tested_on": "Palmer amaranth (AMAPA)", "assay": "pre-emergence test, weed control", "format": "in vivo, Amaranthus palmeri", "conditions": "pre-emergent, 28 DAT; for percentage of weed control, AMAPA: (−)-BFL >95% e.e., rate g ai/ha by row: r6 62, r7 125, r8 125, r9 250, r10 445, r11 890, r12 45, r13 90, r14 62+125, r15 125+125, r16 62+250, r17 125+250, r18 62+445, r19 125+445, r20 62+890, r21 125+890, r22 62+45, r23 125+45, r24 62+90, r25 125+90", "method_in_brief": "as §1"}, "[3]": {"tested_on": "Annual bluegrass (POAAN)", "assay": "post-emergence test, weed control", "format": "in vivo, Poa annua", "conditions": "post-emergent, 28 DAT, height 1-2 cm; rate g ai/ha by row: r7 94, r8 125, r9 188, r10 125, r11 250, r12 94+125, r13 125+125, r14 188+125, r15 94+250, r16 125+250, r17 188+250", "description": "(§2) Test compositions containing the test compounds were diluted with water to provide the appropriate test rate concentrations.\n(§3) For post-emergence testing, seeds of each species for each rate of application of each herbicide solution were planted in 7.5 cm×7.5 cm plastic pots filled with potting soil. The seeds were germinated and the resulting plants were allowed to grow in a greenhouse until they reached a growth stage, such as height, suitable for testing. Treatments were applied using compressed air in a track spray chamber at 30 gallons/acre (280 L/ha) using a TeeJet 8001E nozzle at 40 psi (2.76 bars). Pots of post-emergent treated plants were returned to the greenhouse and not watered for 24 hours after treatment. Thereafter they were regularly watered and fertilized for the duration of the test.\n(§4) The control of weeds was evaluated in each experimental test at 21 for wheat and 28 days after treatment (DAT) for all species. Data were analyzed using Minitab software at 95% confidence interval. The results, shown as an average of the replications, were compared with results observed in untreated control flats in the same tests. Percent control was determined by a method similar to the 0 to 100 rating system disclosed in “Research Methods in Weed Science,” 2nd ed., B. Truelove, Ed.; Southern Weed Science Society; Auburn University, Auburn, Ala., 1977. The rating system is as follows in Table 1."}, "[4]": {"tested_on": "Barnyardgrass (ECHCG)", "assay": "post-emergence test, weed control", "format": "in vivo, Echinochloa crus-galli", "conditions": "post-emergent, 28 DAT; for percentage of weed control, ECHCG: height 8-9 cm, rate g ai/ha by row: r7 94, r8 125, r9 188, r10 125, r11 250, r12 94+125, r13 125+125, r14 188+125, r15 94+250, r16 125+250, r17 188+250", "description": "as §2\nas §3, with “Treatments were applied using compressed air in a track spray chamber at 30 gallons/acre (280 L/ha) using a TeeJet 8001E nozzle at 40 psi (2.76 bars).” left out\nThe control of weeds was evaluated in each experimental test at 21 for wheat and 28 days after treatment (DAT) for all species. […] The rating system is as follows in Table 1."}, "[5]": {"tested_on": "Green foxtail (SETVI)", "assay": "post-emergence test, weed control", "format": "in vivo, Setaria viridis", "conditions": "post-emergent, 28 DAT, height 4-5 cm, rate g ai/ha by row: r7 94, r8 125, r9 188, r10 125, r11 250, r12 94+125, r13 125+125, r14 188+125, r15 94+250, r16 125+250, r17 188+250"}, "[6]": {"tested_on": "Italian ryegrass (LOLMU)", "assay": "post-emergence test, weed control", "format": "in vivo, Lolium perenne. multiflorum", "conditions": "post-emergent, 28 DAT; for percentage of weed control, LOLMU: height 5-6 cm, rate g ai/ha by row: r25 94, r26 125, r27 188, r28 125, r29 250, r30 94+125, r31 125+125, r32 188+125, r33 94+250, r34 125+250, r35 188+250; for control of Italian rygrass (LOLMU): combination of both", "description": "as §2, §3, §4"}, "[7]": {"tested_on": "Redrice (ORYSA)", "assay": "post-emergence test, weed control", "format": "in vivo", "conditions": "post-emergent, 28 DAT, height 8 cm, rate g ai/ha by row: r25 94, r26 125, r27 188, r28 125, r29 250, r30 94+125, r31 125+125, r32 188+125, r33 94+250, r34 125+250, r35 188+250", "description": "as §2, §3, §4"}, "[8]": {"tested_on": "Shattercane (SOBIA)", "assay": "post-emergence test, weed control", "format": "in vivo", "conditions": "post-emergent, 28 DAT, height 8 cm, rate g ai/ha by row: r25 94, r26 125, r27 188, r28 125, r29 250, r30 94+125, r31 125+125, r32 188+125, r33 94+250, r34 125+250, r35 188+250", "description": "as §2, §3, §4"}, "[9]": {"tested_on": "Wild oat (AVEFA)", "assay": "post-emergence test, weed control", "format": "in vivo, Avena fatua", "conditions": "post-emergent, 28 DAT; for percentage of weed control, AVEFA: height 11 cm, rate g ai/ha by row: r25 94, r26 125, r27 188, r28 125, r29 250, r30 94+125, r31 125+125, r32 188+125, r33 94+250, r34 125+250, r35 188+250; for control of wild oats (AVEFA): DCI at 250 g/ha, combination of both", "description": "as §2, §3, §4"}, "[10]": {"tested_on": "Silky windgrass (APSEV)", "assay": "post-emergence test, weed control", "format": "in vivo", "conditions": "post-emergent, 28 DAT, height 1-1.5 cm, rate g ai/ha by row: r25 94, r26 125, r27 188, r28 125, r29 250, r30 94+125, r31 125+125, r32 188+125, r33 94+250, r34 125+250, r35 188+250"}, "[11]": {"conditions": "BFL at 125 g/ha, DCI at 125 g/ha, combination of both"}},
  "data": [
    {"smiles": "CC1(C)CON(Cc2ccc(Cl)cc2Cl)C1=O", "note": "[DCI, 2-(2,4-dichlorophenyl)methyl-4,4-dimethyl-3-isoxazolidinone]", "values": [
      {"measurement": "control of lambsquarters (CHEAL)", "setting": "[1]", "value": 24, "unit": "%"},
      {"measurement": "percentage of weed control, AMAPA", "setting": "[2]; 125 g ai/ha", "value": 94, "unit": "%"},
      {"measurement": "percentage of weed control, AMAPA", "setting": "[2]; 250 g ai/ha", "value": 99, "unit": "%"},
      {"measurement": "control of Palmer amaranth (AMAPA)", "setting": "[2]; [11]", "value": 30, "unit": "%"},
      {"measurement": "percentage of weed control, POAAN", "setting": "[3]", "value": 0, "unit": "%"},
      {"measurement": "percentage of weed control, ECHCG", "setting": "[4]; 125 g ai/ha", "value": 74, "unit": "%"},
      {"measurement": "percentage of weed control, ECHCG", "setting": "[4]; 250 g ai/ha", "value": 69, "unit": "%"},
      {"measurement": "control of barnyardgrass (ECHCG)", "setting": "[4]; [11]", "value": 74, "unit": "%"},
      {"measurement": "percentage of weed control, SETVI", "setting": "[5]; 125 g ai/ha", "value": 6, "unit": "%"},
      {"measurement": "percentage of weed control, SETVI", "setting": "[5]; 250 g ai/ha", "value": 5, "unit": "%"},
      {"measurement": "percentage of weed control, LOLMU", "setting": "[6]; 125 g ai/ha", "value": 0, "unit": "%"},
      {"measurement": "percentage of weed control, LOLMU", "setting": "[6]; 250 g ai/ha", "value": 9, "unit": "%"},
      {"measurement": "control of Italian rygrass (LOLMU)", "setting": "[6]; BFL at 188 g/ha, DCI at 125 g/ha", "value": 0, "unit": "%"},
      {"measurement": "control of Italian rygrass (LOLMU)", "setting": "[6]; DCI at 250 g/ha, BFL at 125 g/ha", "value": 9, "unit": "%"},
      {"measurement": "percentage of weed control, ORYSA", "setting": "[7]; 125 g ai/ha", "value": 26, "unit": "%"},
      {"measurement": "percentage of weed control, ORYSA", "setting": "[7]; 250 g ai/ha", "value": 42, "unit": "%"},
      {"measurement": "percentage of weed control, SOBIA", "setting": "[8]; 125 g ai/ha", "value": 1, "unit": "%"},
      {"measurement": "percentage of weed control, SOBIA", "setting": "[8]; 250 g ai/ha", "value": 4, "unit": "%"},
      {"measurement": "percentage of weed control, AVEFA", "setting": "[9]; 125 g ai/ha", "value": 60, "unit": "%"},
      {"measurement": "percentage of weed control, AVEFA", "setting": "[9]; 250 g ai/ha", "value": 61, "unit": "%"},
      {"measurement": "control of wild oats (AVEFA)", "setting": "[9]; BFL at 125 g/ha", "value": 61, "unit": "%"},
      {"measurement": "control of wild oats (AVEFA)", "setting": "[9]; BFL at 188 g/ha", "value": 61, "unit": "%"},
      {"measurement": "percentage of weed control, APSEV", "setting": "[10]; 125 g ai/ha", "value": 5, "unit": "%"},
      {"measurement": "percentage of weed control, APSEV", "setting": "[10]; 250 g ai/ha", "value": 0, "unit": "%"}
    ]}
  ]
}
